{"source": "patent US20260158102A1", "about": "“CYCLIC PEPTIDE DERIVATIVE COMPOSITION FOR TREATING OR PREVENTING NEUROPATHIC PAIN AND/OR INFLAMMATORY PAIN” (DKS Co. Ltd., priority 2022, published 2026)", "tested_on": "rat carrageenan-induced paw edema model", "test": "Mechanical hyperalgesia (Randall-Selitto pain threshold) in rat carrageenan-induced paw edema model", "type": "in vivo", "conditions": "for Pain threshold (mmHg) 2 hour: 2 hours after carrageenan inflammation, control 31.6 ± 1.4", "description": "On the day before the administration of the phlogistic agent, the pain threshold of each individual by the Randall-Selitto method was measured using an Analgesy meter.\nOn the day before the use of the phlogistic agent, a required amount of carrageenan (Tokyo Chemical Industry Co., Ltd.) was weighed, ground using an agate mortar and pestle, and suspended while adding physiological saline little by little, thereby preparing a 1 w/v % carrageenan physiological saline solution. After preparation, the solution was stored in a refrigerator and used the next day.\nThe test substance was intravenously administered, and after 5 minutes, 0.1 mL of a phlogistic agent (1 w/v % carrageenan physiological saline solution) was subcutaneously administered to the right hind paw of the animal to induce inflammation.\n2, 3, 4, and 5 hours after inflammation, the pain threshold was measured by the Randall-Selitto method using an Analgesy meter.\nDunnett's multiple comparison test was performed between the control group and the test substance group at each measurement time point.", "data": [{"smiles": "CC[C@@]1(C)Oc2cc(ccc2O)C[C@H](N(C)C)C(=O)N[C@@H](C(C)C)C(=O)N[C@@H]1C(=O)N[C@@H](CCC(=O)O)C(=O)O", "note": "[Compound 23]", "values": [{"measurement": "Pain threshold (mmHg) 2 hour", "setting": "1 mg/kg i.v., mean ± SE, N=7", "result": "31.6 ± 2.2", "unit": "mmHg"}, {"measurement": "Pain threshold (mmHg) 4 hour", "setting": "1 mg/kg i.v., 4 hours after carrageenan inflammation, mean ± SE, N=7, control 30.3 ± 0.7", "result": "34.0 ± 1.3", "unit": "mmHg"}, {"measurement": "Pain threshold (mmHg) 5 hour", "setting": "1 mg/kg i.v., 5 hours after carrageenan inflammation, mean ± SE, N=7, control 28.3 ± 1.9", "result": "30.1 ± 1.0", "unit": "mmHg"}, {"measurement": "Pain threshold (mmHg) 2 hour", "setting": "5 mg/kg i.v., mean ± SE, N=7", "result": "34.9 ± 1.7", "unit": "mmHg"}, {"measurement": "Pain threshold (mmHg) 2 hour", "setting": "25 mg/kg i.v., mean ± SE, N=7", "result": "36.7 ± 2.4", "unit": "mmHg"}, {"measurement": "Effect on inflammatory pain (pain threshold by the Randall-Selitto method)", "setting": "rat carrageenan-induced paw edema model, i.v. 1-25 mg/kg, overall conclusion", "result": "suppressing effect on inflammatory pain"}]}]}
